Measured values as given in patent publication US20110021547A1, “Substantially Pure and a Stable Crystalline Form of Bosentan” (ACTAVIS GROUP PTC EHF, priority 2008, published 2011).
Like-named read-outs stand apart in the source and are kept apart here.

How the values were obtained:
Tapped density = assay type: physicochemical
[1] = Particle size distribution by laser diffraction (Malvern Master Sizer 2000); assay type: physicochemical
Description: As used herein, DX means that X percent of the particles have a diameter less than a specified diameter D. Thus, a D90 or d(0.9) of less than 300 microns means that 90 volume-percent of the micronized particles in a composition have a diameter less than 300 microns.
As used herein, “Particle Size Distribution (P.S.D)” means the cumulative volume size distribution of equivalent spherical diameters as determined by laser diffraction in Malvern Master Sizer 2000 equipment or its equivalent. “Mean particle size distribution, i.e., D50” correspondingly, means the median of said particle size distribution.

[2] = cited from earlier work
[3] = Storage stability of crystalline form A5 (temperature / relative humidity); assay type: physicochemical
Protocol: The term “remains stable”, as defined herein, refers to lack of formation of impurities, while being stored as described herein. The stability of crystalline form A5 is measured by maintaining crystalline form A5 at a temperature of about 40° C. at a relative humidity of about 75% for at least about 1 month, specifically for a period of 6 months, or at a temperature of about 25° C. at a relative humidity of about 60% for at least about 6 months.

[4] = Polymorphic stability of form A5 after compression or particle size reduction; assay type: physicochemical
Protocol: The X-Ray powder diffraction was measured by an X-ray powder Diffractometer equipped with a Cu-anode (λ=1.54 Angstrom), X-ray source operated at 40 kV, 40 mA and a Ni filter is used to strip K-beta radiation. Two-theta calibration is performed using an NIST SRM 1976, Corundum standard. The sample was analyzed using the following instrument parameters: measuring range=3-45° 2θ; step width=0.01579°; and measuring time per step=0.11 second.

| Compound | Particle Size Distribution d(0.9) [1] | Particle Size Distribution d(0.1) [1] [microns] | Particle Size Distribution d(0.5) [1] [microns] | further results |
| --- | --- | --- | --- | --- |
| COc1ccccc1Oc1c(NS(=O)(=O)c2ccc(C(C)(C)C)cc2)nc(-c2ncccn2)nc1OCCO [Example 5, Bosentan] | – | – | – | Tapped density (Tapped density): 0.626 g/mL |
| COc1ccccc1Oc1c(NS(=O)(=O)c2ccc(C(C)(C)C)cc2)nc(-c2ncccn2)nc1OCCO [Example 9, Bosentan] | less than 130 microns | – | – | – |
| COc1ccccc1Oc1c(NS(=O)(=O)c2ccc(C(C)(C)C)cc2)nc(-c2ncccn2)nc1OCCO [Example 3, Bosentan] | – | – | – | Tapped density (Tapped density): 0.668 g/mL |
| COc1ccccc1Oc1c(NS(=O)(=O)c2ccc(C(C)(C)C)cc2)nc(-c2ncccn2)nc1OCCO [Example 4, Bosentan] | – | – | – | Tapped density (Tapped density): 0.714 g/mL |
| COc1ccccc1Oc1c(NS(=O)(=O)c2ccc(C(C)(C)C)cc2)nc(-c2ncccn2)nc1OCCO [Example 8, Bosentan] | less than 60 microns | – | – | – |
| COc1ccccc1Oc1c(NS(=O)(=O)c2ccc(C(C)(C)C)cc2)nc(-c2ncccn2)nc1OCCO [Example 6, Bosentan] | – | – | – | Tapped density (Tapped density): 0.667 g/mL |
| COc1ccccc1Oc1c(NS(=O)(=O)c2ccc(C(C)(C)C)cc2)nc(-c2ncccn2)nc1OCCO [Bosentan, p-tert-butyl-N-[6-(2-hydroxyethoxy)-5-(2-methoxyphenoxy)-2-(2-pyrimidinyl)-4-pyrimidinyl]benzenesulfonamide monohydrate] | – | – | – | solubility in aqueous solution at low pH ([2]; pH 1.1): 0.1 mg/100 ml; solubility in aqueous solution at low pH ([2]; pH 4.0): 0.1 mg/100 ml; solubility in aqueous solution at low pH ([2]; pH 5.0): 0.2 mg/100 ml; solubility in water ([2]; water): 1.0 mg/100 ml |
| COc1ccccc1Oc1c(NS(=O)(=O)c2ccc(C(C)(C)C)cc2)nc(-c2ncccn2)nc1OCCO [bosentan crystalline form A5, Bosentan] | – | – | – | stability on storage, tendency to convert to other forms ([3]; about 25° C., relative humidity about 60%, at least about 6 months): more stable; crystalline form and stability on storage ([3]; about 25±2° C., relative humidity about 60±5%, 6 months): remains in the same crystalline form and stable; crystalline form and stability on storage ([3]; about 25±2° C., relative humidity about 60±5%, at least one month): remains in the same crystalline form and stable; stability on storage, tendency to convert to other forms ([3]; about 40° C., relative humidity about 75%, at least about 1 month, specifically 6 months): more stable; crystalline form and stability on storage ([3]; about 40±2° C., relative humidity about 75±5%, 6 months): remains in the same crystalline form and stable; crystalline form and stability on storage ([3]; about 40±2° C., relative humidity about 75±5%, at least one month): remains in the same crystalline form and stable; crystalline form and stability after mechanical particle size reduction ([4]; cutting, chipping, crushing, milling, grinding, micronizing): remains in the same crystalline faun and stable; crystalline form and stability after compression ([4]; pressure of about 7.5 tons/cm^2 for 10 to 15 minutes, checked by X-ray diffractometer): remains in the same crystalline form and stable |
| COc1ccccc1Oc1c(NS(=O)(=O)c2ccc(C(C)(C)C)cc2)nc(-c2ncccn2)nc1OCCO [Example 7, Bosentan] | 231.09 microns | 13.39 | 85.61 | – |

Second part, led by results:

| Particle Size Distribution d(0.9) [1] | Particle Size Distribution d(0.1) [1] [microns] | Particle Size Distribution d(0.5) [1] [microns] | Compound | further results |
| --- | --- | --- | --- | --- |
| 69.43 microns | 7.89 | 31.92 | COc1ccccc1Oc1c(NS(=O)(=O)c2ccc(C(C)(C)C)cc2)nc(-c2ncccn2)nc1OCCO [Example 9C, Bosentan] | – |
| 127.11 microns | 17.03 | 58.84 | COc1ccccc1Oc1c(NS(=O)(=O)c2ccc(C(C)(C)C)cc2)nc(-c2ncccn2)nc1OCCO [Example 9E, Bosentan] | – |
| 78.25 microns | 11.76 | 38.96 | COc1ccccc1Oc1c(NS(=O)(=O)c2ccc(C(C)(C)C)cc2)nc(-c2ncccn2)nc1OCCO [Example 9B, Bosentan] | – |
| 109.61 microns | 14.85 | 53.73 | COc1ccccc1Oc1c(NS(=O)(=O)c2ccc(C(C)(C)C)cc2)nc(-c2ncccn2)nc1OCCO [Example 9D, Bosentan] | – |
| 120.88 microns | – | 28.95 | COc1ccccc1Oc1c(NS(=O)(=O)c2ccc(C(C)(C)C)cc2)nc(-c2ncccn2)nc1OCCO [Example 9A, Bosentan] | – |
